These results are taken from PubChem BioAssay AID1996.

In brackets after ≈: the same amount, converted by molar mass. A value given as a limit tells only on which side of the number the result lay.

For the series the following is noted: buffer; pH 7.4; 200.0 µM.
`COC(=O)c1ccc2nc(NC(=O)C3CC3)sc2c1` showed a solubility (kinetic) of 0.0041 mg/mL (≈ 14.8 µM).
In the case of `Cc1ccc(C)c(S(=O)(=O)NCCCN2CCOCC2)c1` it was greater than 0.0469 mg/mL.
For `Cc1cc(C(=O)Nc2ccon2)c(C)o1` the value was greater than 0.0309 mg/mL.
In the case of `O=C(Cc1ccccc1)NCC(=O)N/N=C/c1ccc(C(=O)O)cc1` it was greater than 0.0509 mg/mL.
Turning to `CCOC(=O)CN1C(=O)NC2(CCCc3ccccc32)C1=O` (centres undefined), the solubility (kinetic) was greater than 0.0453 mg/mL.
In the case of `COc1ccc(CCNC(=O)CSc2ccccn2)cc1` it was greater than 0.0454 mg/mL; in that of `CCC(=O)c1c[nH]c(C(=O)NCc2ccccc2OC)c1`, 0.0028 mg/mL (≈ 9.78 µM).
As to `O=C(NCCc1ccccn1)c1cncc(Br)c1`, the kinetic solubility is greater than 0.0459 mg/mL.
In the case of `O=C(NC1CCCCC1)c1ccc(-n2cncn2)c([N+](=O)[O-])c1` it was greater than 0.0473 mg/mL.
`Cc1cc(NC(=O)NC(C(F)(F)F)C(F)(F)F)no1` showed a solubility (kinetic) of 0.0227 mg/mL (≈ 78 µM).
For `COc1cccc(CNC(C)C(=O)Nc2ccc(S(=O)(=O)N3CCCC3)cc2)c1` (centres undefined), the kinetic solubility was greater than 0.0626 mg/mL.
For `Cc1csc(=O)n1CC(=O)Nc1ccc(C(C)C)cc1` the value was 0.0294 mg/mL (≈ 101 µM); for `O=[N+]([O-])c1cc(O)c(O)c([N+](=O)[O-])c1`, greater than 0.03 mg/mL.
With `CCc1nc2ccccc2c(C(=O)NCc2ccccc2)c1C`, the kinetic solubility came out at 0.0339 mg/mL (≈ 111 µM).
`COC(=O)/C(C#N)=C/c1c(-c2ccccc2)nc2n1CCS2` had a solubility (kinetic) of 0.0075 mg/mL (≈ 24.1 µM).
Turning to `Cc1ccc(S(=O)(=O)N2CCCN(C(=O)OC(C)(C)C)CC2)cc1`, the kinetic solubility was greater than 0.0532 mg/mL.
Molecule `CCCC(=O)O/N=C(\c1ccccc1)c1ccncc1` showed a kinetic solubility of 0.0384 mg/mL (≈ 143 µM).
In turn, `O=C(O)CSCC(=O)NC1CCCc2ccccc21` (centres undefined) showed a kinetic solubility greater than 0.0419 mg/mL.
On to `COc1ccc(Nc2c(-c3ccco3)nc3ccc(C)cn23)cc1`, for which the solubility (kinetic) came out at 0.0005 mg/mL (≈ 1.57 µM).
`COc1ccc(NC(=O)Nc2ccccc2SC)cc1OC` showed a kinetic solubility of 0.0006 mg/mL (≈ 1.88 µM).
The molecule `Cc1cc(C)c(C)c(S(=O)(=O)Nc2cccnc2)c1C` registered a kinetic solubility of 0.0036 mg/mL (≈ 12.4 µM).
On to `COc1cc(OC)c(C(=O)O/N=C(\N)c2ccccc2)cc1OC`, for which the kinetic solubility worked out at 0.0457 mg/mL (≈ 138 µM). This solubility kinetic lies about 13-fold higher than the previous one.
In the case of `Cc1nc(SCC(=O)Nc2ccccc2Cl)oc1C` it was greater than 0.0445 mg/mL; in that of `O=C(NCc1ccccc1)c1ccc(Cl)cc1`, 0.0038 mg/mL (≈ 15.5 µM).
For `Cc1ccc(OCCC(=O)OCC(=O)Nc2ccccc2)cc1` the value was 0.0165 mg/mL (≈ 52.7 µM).
The molecule `CCCOc1ccc(/C=C/c2c([N+](=O)[O-])c(=O)n(C)c(=O)n2C)cc1` registered a kinetic solubility of less than 0.0002 mg/mL.
For `O=C(NCCCNC(=O)c1ccccn1)c1cccc(F)c1` the value was 0.0423 mg/mL (≈ 140 µM); for `O=c1[nH]c(-c2ccccc2)c(-c2ccccc2)o1`, 0.0148 mg/mL (≈ 62.4 µM).
In the case of `COc1ccccc1NC(=S)NCc1ccccc1Cl` it was 0.0013 mg/mL (≈ 4.24 µM); in that of `O=C1NC(c2cc(Cl)cc([N+](=O)[O-])c2O)Nc2ccccc21` (centres undefined), greater than 0.048 mg/mL.
As for `COc1ccc(CC(=O)OCC(=O)NCc2ccc3c(c2)OCO3)cc1OC`, the solubility (kinetic) was greater than 0.0581 mg/mL.
In the case of `CCCCOc1ccc(CON(C(C)=O)C(C)=O)cc1Cl` it was 0.0026 mg/mL (≈ 8.29 µM).
For `Cc1[nH]c(=O)[nH]c(=O)c1NC(=O)c1ccc(OC(C)C)cc1` the value was greater than 0.0455 mg/mL; for `Cc1ccc(S(=O)(=O)NC(=O)Nc2cccc(S(=O)(=O)N(C)C)c2)cc1`, greater than 0.0596 mg/mL.
As for `OCCN(Cc1ccccc1)C(=S)Nc1ccc(F)cc1`, the solubility (kinetic) amounted to 0.0431 mg/mL (≈ 142 µM).
On to `CCOc1ccccc1N(C)C(=O)c1cn(C)c(=O)c2ccccc12`, for which the kinetic solubility is 0.0481 mg/mL (≈ 143 µM). The solubility kinetic values of the last two molecules are within 1.5-fold of each other.
As for `Cc1ccc(C)c(NC(=O)NC2CCCCCCC2)c1`, the solubility (kinetic) is less than 0.0003 mg/mL.
Regarding `CSCCC(NS(=O)(=O)c1ccc(C)cc1C)C(=O)Nc1cccnc1` (centres undefined), the solubility (kinetic) was greater than 0.059 mg/mL.
For `O=C1CN(C(=O)COC(=O)c2ccc([N+](=O)[O-])s2)c2ccccc2N1` the value was 0.0093 mg/mL (≈ 25.7 µM).
In the case of `COc1ccc(OCC(=O)NS(=O)(=O)c2ccccc2)cc1` it was greater than 0.0482 mg/mL; in that of `COc1ccc(-c2c(C#N)sc(C(N)=O)c2-c2ccc(OC)cc2)cc1`, less than 0.0004 mg/mL; in that of `CN(C)c1ccc(C2Nc3cccc4cccc(c34)N2)cc1`, 0.0061 mg/mL (≈ 21.1 µM).
`O=c1oc2cccnc2n1CCS(=O)(=O)c1ccc(F)cc1` displayed a kinetic solubility of 0.045 mg/mL (≈ 140 µM).
As to `Cc1ccc(C)c(OCCN2CCOCC2)c1`, the solubility (kinetic) was 0.0249 mg/mL (≈ 106 µM).
For `O=S(=O)(NCCCc1ccccc1)c1ccc(Br)cc1`, the kinetic solubility is 0.0107 mg/mL (≈ 30.2 µM).
Molecule `COc1ccccc1NC(=O)CN1CCOCC1` showed a solubility (kinetic) greater than 0.0375 mg/mL.
`COc1cc(Br)c(Br)c(Br)c1N` registered a solubility (kinetic) of 0.0009 mg/mL (≈ 2.5 µM).
Take `COc1ccccc1CCC(=O)Nc1ncc(C)s1`: the solubility (kinetic) was 0.0025 mg/mL (≈ 9.05 µM). Against the preceding molecule, the solubility kinetic is about 2.8-fold higher.
Molecule `O=C(Cc1ccccc1)Nc1ccccc1C(=O)N1CCCCC1` displayed a kinetic solubility greater than 0.0484 mg/mL.
In the case of `CS(=O)(=O)c1ccc2nc(NC(=O)C3CCCO3)sc2c1` (centres undefined), the solubility (kinetic) amounted to 0.0438 mg/mL (≈ 134 µM).
In the case of `Cc1nc(N)nc(SCc2ccc([N+](=O)[O-])cc2)c1N` it was 0.0161 mg/mL (≈ 55.3 µM).
In the case of `CC(=O)Nc1ccc(S(=O)(=O)N2CCCC(C(=O)O)C2)cc1` (centres undefined) it was greater than 0.049 mg/mL; in that of `Cc1c(Cl)cccc1NC(=O)Nc1cccnc1`, 0.0349 mg/mL (≈ 133 µM).
For `Cc1nc2sc(C(N)=O)c(N)c2c2c1CCCC2` the value was 0.0093 mg/mL (≈ 35.6 µM); for `COC(=O)CNc1nc(Cl)nc(NC2CCCCC2)n1`, 0.0277 mg/mL (≈ 92.4 µM); for `CCN(CC(=O)NC1CCS(=O)(=O)C1)S(=O)(=O)c1ccc(Br)cc1` (centres undefined), greater than 0.0659 mg/mL.
`O=C(O)C1CCCCC1C(=O)NCCc1ccc(F)cc1` (centres undefined) returned a kinetic solubility greater than 0.044 mg/mL.
The molecule `CCN(CC)c1ccc(NC(=O)Nc2ccccc2)cc1` yielded a solubility (kinetic) of 0.0041 mg/mL (≈ 14.5 µM).
In the case of `O=C(Nc1ccccc1C(=O)N1CCCCCC1)c1ccc(F)cc1` it was greater than 0.0511 mg/mL; in that of `O=S1(=O)CCN(OCc2ccc(F)cc2Cl)CC1`, 0.0431 mg/mL (≈ 147 µM); in that of `COc1ccc(-c2noc(CN(C)C(=O)c3ccoc3C)n2)cc1`, 0.0406 mg/mL (≈ 124 µM).
For `C=CCc1ccc(OC(=O)NC2CCCCC2)c(OC)c1` the value was 0.0045 mg/mL (≈ 15.6 µM); for `O=C(NCCc1ccccc1)c1ccccc1Cl`, greater than 0.039 mg/mL.
For `CC(=O)Nc1ccc(S(=O)(=O)N(C)CC(=O)OCC(=O)N2CCCCCC2)cc1` the value was 0.0603 mg/mL (≈ 142 µM).
The molecule `Cc1ccc2c(=O)[nH]c(Nc3nc(C)cc(-c4ccccc4)n3)nc2c1` had a kinetic solubility of less than 0.0001 mg/mL.
For `COc1ccc([N+](=O)[O-])cc1NC(=S)NC(C)=O`, the solubility (kinetic) turned out to be 0.002 mg/mL (≈ 7.43 µM).
In the case of `CC1=C(C(=O)OC2CCCC(C)C2)C(c2ccccc2)NC(=O)N1` (centres undefined) it was 0.0043 mg/mL (≈ 13.1 µM); in that of `COC(=O)c1c(C(=O)OC)c(-c2ccc(F)cc2)n2c1CS(=O)C2` (centres undefined), greater than 0.0527 mg/mL.
With `CCN(CC)CC(=O)c1c(N)n(Cc2ccccc2)c(=O)n(C)c1=O`, the kinetic solubility turned out to be 0.0514 mg/mL (≈ 149 µM).
`CN(CCN1CCOCC1)Cc1nc(-c2ccc3c(c2)OCO3)no1` gave a kinetic solubility of 0.0485 mg/mL (≈ 140 µM).
For `CN(C(=O)CSC(=O)c1ccccc1)c1ccccc1` the value was 0.0406 mg/mL (≈ 142 µM); for `O=S(=O)(c1cc(F)ccc1F)N1CCC2(CC1)OCCO2`, greater than 0.0479 mg/mL.
Molecule `Cn1c(=O)n(Cc2ccccc2)c(=O)c2c1nc1n2CCN1Cc1ccco1` registered a solubility (kinetic) of 0.0518 mg/mL (≈ 137 µM).
`CC(C)[C@H](NC(=O)c1ccccc1Cl)C(=O)Nc1ccc(S(=O)(=O)Nc2nccs2)cc1`: the solubility (kinetic) turned out to be 0.0146 mg/mL (≈ 29.6 µM).
Consider `CCOc1cc(/C=C2/C(=O)ON=C2C)cc(Br)c1O`, for which the solubility (kinetic) was greater than 0.0489 mg/mL.
Molecule `O=C(CCNC(=O)c1ccc(Br)cc1)Nc1ccc(S(=O)(=O)N2CCOCC2)cc1` returned a kinetic solubility of 0.0053 mg/mL (≈ 10.7 µM).
For `Cc1cccc(C(C)C)c1NS(=O)(=O)c1cn(C)nc1C` the value was greater than 0.0461 mg/mL; for `NS(=O)(=O)c1cccc(NC(=O)CCC(=O)c2cccs2)c1`, greater than 0.0508 mg/mL.
On to `Cc1cccc(C)c1NC(=O)CNC(=O)c1cccnc1`, for which the kinetic solubility is greater than 0.0425 mg/mL.
For `Cc1cccc(Nc2ccc([N+](=O)[O-])cn2)c1` the value was 0.0134 mg/mL (≈ 58.5 µM); for `COCCCNC(=O)[C@H]1N2C(=O)c3ccccc3C2SC1(C)C` (some centres undefined), 0.0454 mg/mL (≈ 136 µM).
For `O=C(c1cc([N+](=O)[O-])ccc1Cl)N1CCc2ccccc21` the value was 0.0016 mg/mL (≈ 5.29 µM); for `COc1ccc(O)c(/C=C2/SC(=S)N(Cc3ccccc3)C2=O)c1`, less than 0.0008 mg/mL.
For `COc1cccc(Nc2nc(-c3ccccc3)nc3ccccc23)c1`, the kinetic solubility was 0.0032 mg/mL (≈ 9.77 µM).
The molecule `Cc1cccc(N2C(=O)C(Cl)=C(N3CCOCC3)C2=O)c1` registered a kinetic solubility greater than 0.046 mg/mL.
For `Cc1cc(C(=O)OCC(=O)N(C)c2ccccc2)c2ccccc2n1` the value was greater than 0.0502 mg/mL.
`Cc1ccc(CCCOC(=O)CN2CCCCC2)cc1` gave a solubility (kinetic) of 0.0235 mg/mL (≈ 85.3 µM).
In the case of `Cc1cc(C(=O)OCC(=O)NCc2ccccc2)c2ccccc2n1` it was 0.0139 mg/mL (≈ 41.6 µM); in that of `CCCCc1ccccc1NC(=S)NC1CCCC1`, 0.0305 mg/mL (≈ 110 µM).
`CCCc1cc(=O)[nH]c(SCCc2ccccc2)n1` had a solubility (kinetic) of 0.0174 mg/mL (≈ 63.4 µM).
In the case of `CCC1CCc2c(sc(NC(=O)c3cnccn3)c2C(N)=O)C1` (centres undefined) it was 0.0018 mg/mL (≈ 5.45 µM).
`O=C(NCCc1ccccc1)c1ccc2c(c1)OCO2` gave a kinetic solubility of 0.0396 mg/mL (≈ 147 µM).
In the case of `Cc1c(NC(=O)COC(=O)C2=COCCO2)cccc1[N+](=O)[O-]` it was greater than 0.0483 mg/mL; in that of `Cc1nc(CSc2n[nH]c(=O)n2-c2cccc(F)c2)cs1`, greater than 0.0484 mg/mL; in that of `Cc1ccc(CNCc2cccnc2)s1.Cl`, greater than 0.0382 mg/mL.
In the case of `CC1=NOC(=O)/C1=C/c1ccc2c(c1)OCO2` it was 0.0251 mg/mL (≈ 109 µM); in that of `CCOC(=O)N1CCN(c2ccc(S(=O)(=O)N3CCOCC3)cn2)CC1`, 0.047 mg/mL (≈ 122 µM); in that of `COc1ccc(NC(=O)c2ccccc2SC)c(OC)c1`, greater than 0.0455 mg/mL.
In the case of `NC(=S)N1CCCc2ccccc21` it was greater than 0.0288 mg/mL; in that of `COC(=O)c1ccc(NC(=O)CCC(=O)c2ccc(F)cc2)cc1`, less than 0.0007 mg/mL.
For the molecule `COc1ccc(N2C(=O)CSC2c2ccccc2)cc1` (centres undefined), the kinetic solubility amounted to 0.0423 mg/mL (≈ 148 µM).
`O=C(Nc1cccc(OC(=O)N2CCCCC2)c1)N1CCOCC1`: the kinetic solubility was greater than 0.05 mg/mL.
In the case of `Cl.Fc1ccccc1CNC1CN2CCC1CC2` (centres undefined) it was greater than 0.0461 mg/mL; in that of `COC(=O)c1ccc(CSc2nc3ccccc3c(=O)n2C)o1`, 0.0045 mg/mL (≈ 13.6 µM).

The kinetic solubility is solubility judged after dilution from a stock solution rather than from solid.
